Experimental findings from patent US9994590B2, “Substituted [1,2,4]triazolo[1,5-a]pyrazines as phosphodiesterase inhibitors” (Sunovion Pharamaceuticals Inc., priority 2012, dated 2018) are described below.

Each structure is given as a SMILES string.

The test has as its target recombinant human PDE-10 enzyme (human PDE-10A) (Homo sapiens (Human), UniProt Q9Y233). Kind of test: human PDE-10 inhibition assay (Molecular Devices IMAP PDE Fluorescence Polarization, enzyme assay IC50). It is filed as biochemical. Conditions: Fluorescein-labeled cAMP/cGMP substrate, 40-minute incubation at 37° C. As to the method:
In one embodiment, the compounds provided herein were assayed for their ability to inhibit human PDE-10A. In one embodiment, the activities of the compounds were determined using the Molecular Devices IMAP PDE Fluorescence Polarization assay using recombinant human PDE-10 enzyme expressed in a baculoviral system. Briefly, 10 μL of a compound (0.2 nM-20 μM) was added to either a 96-well half area black plate or a 384-well black plate along with 10 μL of Fluorescein-labeled cAMP/cGMP substrate as per manufacturer's instructions and 10 μL of PDE enzyme (activity 0.1 U). Following a 40-minute incubation at 37° C., 60 μL of IMAP binding reagent was added. The plate was then read on a Perkin Elmer Victor (480-535 nm). The data was analyzed using Prism Software (GraphPad Inc, San Diego, Calif.).

Sequence of recombinant human PDE-10 enzyme (human PDE-10A) (Q9Y233 whole entry): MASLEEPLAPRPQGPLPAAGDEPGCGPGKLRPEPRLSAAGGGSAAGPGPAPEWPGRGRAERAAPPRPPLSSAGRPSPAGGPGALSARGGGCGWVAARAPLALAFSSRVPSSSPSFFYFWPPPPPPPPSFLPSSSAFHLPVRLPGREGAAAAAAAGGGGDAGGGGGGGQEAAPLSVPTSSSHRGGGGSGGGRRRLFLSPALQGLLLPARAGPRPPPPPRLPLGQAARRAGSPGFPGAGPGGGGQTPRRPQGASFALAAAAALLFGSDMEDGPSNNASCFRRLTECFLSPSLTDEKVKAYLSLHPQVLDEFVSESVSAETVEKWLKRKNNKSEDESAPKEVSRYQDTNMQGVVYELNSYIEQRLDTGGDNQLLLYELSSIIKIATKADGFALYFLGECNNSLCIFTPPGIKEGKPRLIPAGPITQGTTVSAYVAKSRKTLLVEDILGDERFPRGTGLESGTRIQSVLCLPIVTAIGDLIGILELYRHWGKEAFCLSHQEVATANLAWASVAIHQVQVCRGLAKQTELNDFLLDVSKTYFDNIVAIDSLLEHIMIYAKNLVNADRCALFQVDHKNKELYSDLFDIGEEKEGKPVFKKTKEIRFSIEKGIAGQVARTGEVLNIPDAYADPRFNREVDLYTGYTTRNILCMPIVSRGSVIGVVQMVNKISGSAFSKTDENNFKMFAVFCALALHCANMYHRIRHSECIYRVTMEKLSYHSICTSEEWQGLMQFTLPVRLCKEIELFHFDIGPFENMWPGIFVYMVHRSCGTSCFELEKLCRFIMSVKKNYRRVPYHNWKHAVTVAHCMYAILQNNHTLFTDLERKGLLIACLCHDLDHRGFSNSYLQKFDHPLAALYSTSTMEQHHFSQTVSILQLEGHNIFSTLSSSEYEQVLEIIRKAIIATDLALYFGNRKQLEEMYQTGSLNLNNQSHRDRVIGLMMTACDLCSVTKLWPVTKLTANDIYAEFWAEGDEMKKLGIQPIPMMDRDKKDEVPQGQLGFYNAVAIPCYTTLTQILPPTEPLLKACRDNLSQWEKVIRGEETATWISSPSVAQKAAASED

For the compound `COc1ccn2c(C)c(C3CCC3c3nc4c(C)ncc(C)n4n3)nc2c1` (racemic) [Compound 43, (±)-2-(2-(7-methoxy-3-methylimidazo[1,2-a]pyridin-2-yl)cyclobutyl)-5,8-dimethyl-[1,2,4]triazolo[1,5-a]pyrazine], the 50% inhibitory concentration (IC50) was more than 500 nM. For `COc1cc(C)cn2c(F)c(C3CC3c3nc4c(C)ncc(C)n4n3)nc12` (racemic) [Compound 44, (±)-2-(2-(3-fluoro-8-methoxy-6-methylimidazo[1,2-a]pyridin-2-yl)cyclopropyl)-5,8-dimethyl-[1,2,4]triazolo[1,5-a]pyrazine], the IC50 was in the range of 10 to 100 nM. Under `Cc1ncc(C)n2cc(C3CC3c3nc4c(C)ncc(C)n4n3)nc12` (racemic) [Compound 45, (±)-2-(2-(5,8-dimethylimidazo[1,2-a]pyrazin-2-yl)cyclopropyl)-5,8-dimethyl-[1,2,4]triazolo[1,5-a]pyrazine] stands more than 500 nM. For `COc1cccc2c1nc(C1CC1c1nc3c(C)ncc(C)n3n1)n2C` (racemic) [Compound 46, (±)-2-(2-(4-methoxy-1-methyl-1H-benzo [d]imidazol-2-yl)cyclopropyl)-5,8-dimethyl-[1,2,4]triazolo[1,5-a]pyrazine] the value was 100 to 500 nM; for `COc1cccc2[nH]c(C3CC3c3nc4c(C)ncc(C)n4n3)nc12` (racemic) [Compound 47, (±)-2-(2-(4-methoxy-1H-benzo[d]imidazol-2-yl)cyclopropyl)-5,8-dimethyl-[1,2,4]triazolo[1,5-a]pyrazine], 100 to 500 nM. As for `Cc1ncc(C)n2nc(C3CC3c3nc4c5c(ccn4c3F)OCCO5)nc12` (racemic) [Compound 48, (±)-9-(2-(5,8-dimethyl-[1,2,4]triazolo[1,5-a]pyrazin-2-yl)cyclopropyl)-8-fluoro-2,3-dihydro-[1,4]dioxino[2,3-c]imidazo[1,2-a]pyridine], the IC50 is 10 to 100 nM. For `COc1cccn2c(F)c(C3CC3c3nc4c(C)ncc(C)n4n3)nc12` (racemic) [Compound 55, (±)-2-(2-(3-fluoro-8-methoxyimidazo[1,2-a]pyridin-2-yl)cyclopropyl)-5,8-dimethyl-[1,2,4]triazolo[1,5-a]pyrazine] the value was 10 to 100 nM; for `Fc1ccn2cc(C3CCC3c3cn4cccc(Cl)c4n3)nc2c1` (racemic) [Compound 58, (±)-8-chloro-2-(2-(7-fluoroimidazo[1,2-a]pyridin-2-yl)cyclobutyl)imidazo[1,2-a]pyridine], more than 500 nM; for `COc1cccn2cc(C3CC3c3nc4c(C)ncc(C)n4n3)nc12` (racemic) [Compound 59, (±)-2-(2-(8-methoxyimidazo[1,2-a]pyridin-2-yl)cyclopropyl)-5,8-dimethyl-[1,2,4]triazolo[1,5-a]pyrazine], 100 to 500 nM. Under `Cn1c([C@H]2C[C@@H]2c2ccc3ccccc3n2)nc2c3cccnc3ccc21` (single isomer, unassigned) [Compound 21] stands 10 to 100 nM; under `Cn1c([C@@H]2C[C@H]2c2ccc3ccccc3n2)nc2c3cccnc3ccc21` (single isomer, unassigned) [Compound 22], 100 to 500 nM; under `Cc1ncc(C)n2nc([C@H]3C[C@@H]3c3nc4c5cccnc5ccn4c3C)nc12` (single isomer, unassigned) [Compound 26], 100 to 500 nM.

For `Cc1ncc(C)n2nc([C@@H]3C[C@H]3c3nc4c5cccnc5ccn4c3C)nc12` (single isomer, unassigned) [Compound 27], the IC50 was not above 10 nM. Under `COc1cccn2c(F)c([C@@H]3C[C@H]3c3nc4c(C)ncc(C)n4n3)nc12` (single isomer, unassigned) [Compound 56, 2-(2-(3-fluoro-8-methoxyimidazo[1,2-a]pyridin-2-yl)cyclopropyl)-5,8-dimethyl-[1,2,4]triazolo[1,5-a]pyrazine] stands more than 500 nM; under `COc1cccn2c(F)c([C@@H]3C[C@H]3c3nc4c(C)ncc(C)n4n3)nc12` (single isomer, unassigned) [Compound 57, 2-(2-(3-fluoro-8-methoxyimidazo[1,2-a]pyridin-2-yl)cyclopropyl)-5,8-dimethyl-[1,2,4]triazolo[1,5-a]pyrazine], 10 to 100 nM.

Take `Cc1ncc(C)n2nc(C3CC3c3nc4c5cccnc5ccn4c3C)nc12` (stereo not shown) [Compound 1, 2-(2-(5,8-Dimethyl-[1,2,4]triazolo[1,5-a]pyrazin-2-yl)cyclopropyl)-3-methylimidazo[2,1-f][1,6]naphthyridine]: the half-maximal inhibitory concentration (IC50) was not above 10 nM. Under `COc1ccn2cc(C3CC3c3nc4c(C)ncc(C)n4n3)nc2c1C` (stereo not shown) [Compound 2, 2-(2-(7-Methoxy-8-methylimidazo[1,2-a]pyridin-2-yl)cyclopropyl)-5,8-dimethyl-[1,2,4]triazolo[1,5-a]pyrazine] stands more than 500 nM; under `Cc1ncc(C)n2nc(C3CC3c3nc4c5ccccc5ccn4c3C)nc12` (stereo not shown) [Compound 3], not above 10 nM; under `Cc1ncc(C)n2nc(C3CC3c3nc4cc(F)ccn4c3C)nc12` (stereo not shown) [Compound 4], more than 500 nM. Under `Cc1ncc(C)n2nc(C3CC3c3nc4c(C5CC5)cccn4c3C)nc12` (stereo not shown) [Compound 5, 2-(2-(8-Cyclopropyl-3-methylimidazo[1,2-a]pyridin-2-yl)cyclopropyl)-5,8-dimethyl-[1,2,4]triazolo[1,5-a]pyrazine] stands 10 to 100 nM; under `Cc1ccn2c(C)c(C3CC3c3nc4c(C)ncc(C)n4n3)nc2c1` (stereo not shown) [Compound 6, 2-(2-(3,7-Dimethylimidazo[1,2-a]pyridin-2-yl)cyclopropyl)-5,8-dimethyl-[1,2,4]triazolo[1,5-a]pyrazine], 100 to 500 nM; under `Cc1ccn2c(C)c(C3CC3c3cn4ccc(F)cc4n3)nc2c1` (stereo not shown) [Compound 7, 2-(2-(7-Fluoroimidazo[1,2-a]pyridin-2-yl)cyclopropyl)-3,7-dimethylimidazo[1,2-a]pyridine], more than 500 nM. For `Cc1cccn2cc(C3CC3c3cn4cccc(C)c4n3)nc12` (stereo not shown) [Compound 8, 1,2-Bis(8-methylimidazo[1,2-a]pyridin-2-yl)cyclopropane] the value was more than 500 nM. In the case of `Fc1ccn2cc(C3CC3c3cn4ccc(F)cc4n3)nc2c1` (stereo not shown) [Compound 9], the IC50 was more than 500 nM. For `Fc1cccn2cc(C3CC3c3cn4cccc(F)c4n3)nc12` (stereo not shown) [Compound 10] the value was more than 500 nM; for `Clc1cccn2cc(C3CC3c3cn4cccc(Cl)c4n3)nc12` (stereo not shown) [Compound 11], more than 500 nM.

For the compound `Cc1ccn2cc(C3CC3c3nc4c(C)ncc(C)n4n3)nc2c1` (stereo not shown) [Compound 12, 5,8-Dimethyl-2-(2-(7-methylimidazo[1,2-a]pyridin-2-yl)cyclopropyl)-[1,2,4]triazolo[1,5-a]pyrazine], the 50% inhibitory concentration (IC50) was more than 500 nM. Under `COc1ccn2c(C)c(C3CC3c3nc4c(C)ncc(C)n4n3)nc2c1` (stereo not shown) [Compound 13] stands 100 to 500 nM; under `CCOc1ccn2c(C)c(C3CC3c3nc4c(C)ncc(C)n4n3)nc2c1` (stereo not shown) [Compound 14], more than 500 nM. As to `COc1cccn2c(C)c(C3CC3c3nc4c(C)ncc(C)n4n3)nc12` (stereo not shown) [Compound 15], the IC50 fell in the range of 10 to 100 nM. Under `COc1ccn2cc(C3CC3c3nc4c(C)ncc(C)n4n3)nc2c1` (stereo not shown) [Compound 16] stands more than 500 nM; under `CCOc1cccn2cc(C3CC3c3nc4c(C)ncc(C)n4n3)nc12` (stereo not shown) [Compound 17], 10 to 100 nM. For `Cc1cc2nc(C3CC3c3nc4c(C)ncc(C)n4n3)cn2cc1F` (stereo not shown) [Compound 18] the value was more than 500 nM; for `Cc1ncc(C)n2nc(C3CC3c3nc(-c4ccccc4)cn3C)nc12` (stereo not shown) [Compound 19, 5,8-Dimethyl-2-(2-(1-methyl-4-phenyl-1H-imidazol-2-yl)cyclopropyl)-[1,2,4]triazolo[1,5-a]pyrazine], 10 to 100 nM. Take `Cn1c(C2CC2c2ccc3ccccc3n2)nc2c3cccnc3ccc21` (stereo not shown) [Compound 20, 3-Methyl-2-(2-(quinolin-2-yl)cyclopropyl)-3H-imidazo[4,5-f]quinoline]: the IC50 was in the range of 100 to 500 nM. Under `Clc1cccn2cc(C3CCC3c3cn4cccc(Cl)c4n3)nc12` (stereo not shown) [Compound 23, 1,2-Bis(8-chloroimidazo[1,2-a]pyridin-2-yl)cyclobutane] stands 100 to 500 nM; under `Fc1ccn2cc(C3CCC3c3cn4cccc(Cl)c4n3)nc2c1` (stereo not shown) [Compound 24, 8-Chloro-2-(2-(7-fluoroimidazo[1,2-a]pyridin-2-yl)cyclobutyl)imidazo[1,2-a]pyridine], more than 500 nM; under `Cn1c(C2CCC2c2nc3c4cccnc4ccc3n2C)nc2c3cccnc3ccc21` (stereo not shown) [Compound 25, 1,2-Bis(3-methyl-3H-imidazo[4,5-f]quinolin-2-yl)cyclobutane], more than 500 nM. `Cc1ncc(C)n2nc([C@H]3C[C@@H]3c3nc4c5cccnc5ccc4n3C)nc12` [Compound 28]: the 50% inhibitory concentration (IC50) lay within 100 to 500 nM. Turning to `Cc1ncc(C)n2nc([C@@H]3C[C@H]3c3nc4c5cccnc5ccc4n3C)nc12` [Compound 29], the half-maximal inhibitory concentration (IC50) is not above 10 nM.
